The text below walks through data of patent US10004701B2, “Methods and compositions for treating infection” (UNIVERSITY OF ROCHESTER, priority 2012, dated 2018).

What all share (assay): AK assay 384-well format, Prestwick library screening
For experiment [1], the system named is E. faecium. In kind it is cell-based, Enterococcus faecium. Particulars: for fold induction at 50 µM: Enterococcus faecium, 3 h.
Experiment [2] deals with S. aureus strain USA300-0114. It counts as cell-based, Staphylococcus aureus. The settings on record: for fold induction at 50 µM: Staphylococcus aureus, USA300, 3 h.
In experiment [3] the test system is K. pneumoniae. In kind it is cell-based, Klebsiella pneumoniae. Particulars: for fold induction at 50 µM: Klebsiella pneumoniae, 3 h.
Experiment [4] relates to A. baumannii strain 98-37-09. In kind it is cell-based, Acinetobacter baumannii. The settings on record: for fold induction at 50 µM: Acinetobacter baumannii, 983709, 3 h.
Experiment [5] deals with P. aeruginosa. In kind it is cell-based, Pseudomonas aeruginosa. The settings on record: for fold induction at 50 µM: Pseudomonas aeruginosa, 3 h.
Experiment [6] deals with E. cloacae. It counts as cell-based, Enterobacter cloacae. The settings on record: for fold induction at 50 µM: Enterobacter cloacae, 3 h.
In experiment [7] the test system is E. coli. In kind it is cell-based, Escherichia coli. The settings on record: for fold induction at 50 µM: Escherichia coli, 3 h.
Setting [8] is: 50 μM final drug concentration, planktonic, cutoff for positive-scoring molecules 3-fold increase, read-out: AK-based Prestwick Library Screening Results, E. faecium (fold increase in extracellular AK activity).
Where [9] appears, read: 50 μM final drug concentration, planktonic, cutoff for positive-scoring molecules 3-fold increase, read-out: AK-based Prestwick Library Screening Results, S. aureus (fold increase in extracellular AK activity).
Where [10] appears, read: 50 μM final drug concentration, planktonic, cutoff for positive-scoring molecules 3-fold increase, read-out: AK-based Prestwick Library Screening Results, K. pneumoniae (fold increase in extracellular AK activity).
Setting [11] is: 50 μM final drug concentration, planktonic, cutoff for positive-scoring molecules 3-fold increase, read-out: AK-based Prestwick Library Screening Results, A. baumannii (fold increase in extracellular AK activity).
The mark [12] stands for this setting: 50 μM final drug concentration, planktonic, cutoff for positive-scoring molecules 3-fold increase, read-out: AK-based Prestwick Library Screening Results, P. aeruginosa (fold increase in extracellular AK activity).
Where [13] appears, read: 50 μM final drug concentration, planktonic, cutoff for positive-scoring molecules 3-fold increase, read-out: AK-based Prestwick Library Screening Results, E. cloacae (fold increase in extracellular AK activity).
The mark [14] stands for this setting: 50 μM final drug concentration, planktonic, cutoff for positive-scoring molecules 3-fold increase, read-out: AK-based Prestwick Library Screening Results, E. coli (fold increase in extracellular AK activity).
[15] abbreviates: planktonic E. faecium, 50 μM final drug concentration, 384-well, cutoff for positive-scoring molecules 3-fold increase, read-out: AK-based Prestwick Library Screening Results: E. faecium (increase in extracellular AK activity).
[16] abbreviates: planktonic S. aureus, 50 μM final drug concentration, 384-well, cutoff for positive-scoring molecules 3-fold increase, read-out: AK-based Prestwick Library Screening Results: S. aureus (increase in extracellular AK activity).
[17] abbreviates: planktonic K. pneumoniae, 50 μM final drug concentration, 384-well, cutoff for positive-scoring molecules 3-fold increase, read-out: AK-based Prestwick Library Screening Results: K. pneumoniae (increase in extracellular AK activity).
The mark [18] stands for this setting: planktonic A. baumannii, 50 μM final drug concentration, 384-well, cutoff for positive-scoring molecules 3-fold increase, read-out: AK-based Prestwick Library Screening Results: A. baumannii (increase in extracellular AK activity).
Where [19] appears, read: planktonic P. aeruginosa, 50 μM final drug concentration, 384-well, cutoff for positive-scoring molecules 3-fold increase, read-out: AK-based Prestwick Library Screening Results: P. aeruginosa (increase in extracellular AK activity).
[20] abbreviates: planktonic E. cloacae, 50 μM final drug concentration, 384-well, cutoff for positive-scoring molecules 3-fold increase, read-out: AK-based Prestwick Library Screening Results: E. cloacae (increase in extracellular AK activity).
Setting [21] is: planktonic E. coli, 50 μM final drug concentration, 384-well, cutoff for positive-scoring molecules 3-fold increase, read-out: AK-based Prestwick Library Screening Results: E. coli (increase in extracellular AK activity).
Setting [22] is: 50 μM final drug concentration, planktonic, […].

The structures appear in SMILES notation. Structures can show the parent of a compound that is named as a salt. Where two headings read alike, the source gives them in different places.

Regarding `CC/C(=C(/CC)c1ccc(O)cc1)c1ccc(O)cc1` [Diethylstilbestrol], the fold induction at 50 µM in experiment [1] (setting [8]) was 1.1; in experiment [2] (setting [9]) it was 0.6; in experiment [3] (setting [10]) it was 0.7; in experiment [4] (setting [11]) it was 1.8; in experiment [5] (setting [12]) it was 0.8; in experiment [6] (setting [13]) it was 1.4. Moreover, the fold induction at 50 µM in experiment [7] (setting [14]) is 0.9.

Consider `Oc1ccc2c3c1O[C@H]1[C@@H](O)CC[C@@]4(O)[C@@H](C2)N(CC2CCC2)CC[C@]314` [Nalbuphine hydrochloride], for which the fold induction at 50 µM in experiment [1] (read-out: AK-based Prestwick Library Screening Results, E. faecium (increase in extracellular AK activity)) stood at 0.9; in experiment [2] (read-out: AK-based Prestwick Library Screening Results, S. aureus (increase in extracellular AK activity)), 0.7; in experiment [3] (read-out: AK-based Prestwick Library Screening Results, K. pneumoniae (increase in extracellular AK activity)), 0.7; in experiment [4] (read-out: AK-based Prestwick Library Screening Results, A. baumannii (increase in extracellular AK activity)) it was 0.9; in experiment [5] (read-out: AK-based Prestwick Library Screening Results, P. aeruginosa (increase in extracellular AK activity)), 0.8; in experiment [6] (read-out: AK-based Prestwick Library Screening Results, E. cloacae (increase in extracellular AK activity)), 1.2. In addition, the fold induction at 50 µM in experiment [7] (read-out: AK-based Prestwick Library Screening Results, E. coli (increase in extracellular AK activity)) amounted to 0.9.

For `O=C1CN(/N=C/c2ccc([N+](=O)[O-])o2)C(=O)N1` [Nitrofurantoin], the fold induction at 50 µM came to 1 in experiment [1] (50 μM final drug concentration, 384-well format, cutoff for positive-scoring molecules 3-fold increase, read-out: AK-based Prestwick Library Screening Results, E. faecium (increase in extracellular AK activity)); 0.4 in experiment [2] (50 μM final drug concentration, 384-well format, cutoff for positive-scoring molecules 3-fold increase, read-out: AK-based Prestwick Library Screening Results, S. aureus (increase in extracellular AK activity)); 0.8 in experiment [3] (50 μM final drug concentration, 384-well format, cutoff for positive-scoring molecules 3-fold increase, read-out: AK-based Prestwick Library Screening Results, K. pneumoniae (increase in extracellular AK activity)); 0.5 in experiment [4] (50 μM final drug concentration, 384-well format, cutoff for positive-scoring molecules 3-fold increase, read-out: AK-based Prestwick Library Screening Results, A. baumannii (increase in extracellular AK activity)); 0.4 in experiment [5] (50 μM final drug concentration, 384-well format, cutoff for positive-scoring molecules 3-fold increase, read-out: AK-based Prestwick Library Screening Results, P. aeruginosa (increase in extracellular AK activity)); 0.6 in experiment [6] (50 μM final drug concentration, 384-well format, cutoff for positive-scoring molecules 3-fold increase, read-out: AK-based Prestwick Library Screening Results, E. cloacae (increase in extracellular AK activity)). Besides, the fold induction at 50 µM in experiment [7] (50 μM final drug concentration, 384-well format, cutoff for positive-scoring molecules 3-fold increase, read-out: AK-based Prestwick Library Screening Results, E. coli (increase in extracellular AK activity)) was found to be 0.4.

For the molecule `CC(C(=O)O)c1ccc(N2Cc3ccccc3C2=O)cc1` (stereo not shown) [Indoprofen], the fold induction at 50 µM was found to be 0.1 in experiment [1] (setting [8]); 0.2 in experiment [2] (setting [9]); 0.1 in experiment [3] (setting [10]); 0.2 in experiment [4] (setting [11]); 0.2 in experiment [5] (setting [12]); 1.5 in experiment [6] (setting [13]). Besides, in experiment [7] (setting [14]), the fold induction at 50 µM was 0.2.

Consider `CC(=O)c1ccc(S(=O)(=O)NC(=O)NC2CCCCC2)cc1` [Acetohexamide], for which the fold induction at 50 µM in experiment [1] (setting [15]) came out at 0.9; in experiment [2] (setting [16]), 1.1; in experiment [3] (setting [17]), 0.8; in experiment [4] (setting [18]) it was 1.1; in experiment [5] (setting [19]) it was 1.2; in experiment [6] (setting [20]) it was 1.7. In experiment [7] (setting [21]), the fold induction at 50 µM came to 1.2.

For the molecule `Clc1ccc(COC(Cn2ccnc2)c2ccc(Cl)cc2Cl)cc1` (stereo not shown) [Econazole nitrate], the fold induction at 50 µM in experiment [1] (setting [15]) was 1.5; in experiment [2] (setting [16]), 3.7; in experiment [3] (setting [17]) it was 1.3; in experiment [4] (setting [18]) it was 6.7; in experiment [5] (setting [19]), 1.3; in experiment [6] (setting [20]) it was 1.3. In experiment [7] (setting [21]), the fold induction at 50 µM was 1.3.

In the case of `C1CCN2C[C@@H]3C[C@@H](CN4CCCC[C@@H]34)[C@H]2C1` [Sparteine (−)], in experiment [1] (setting [22]), the “AK-based Prestwick Library Screening Results, E. faecium (fold increase in extracellular AK activity)” value is recorded as 1.0. In addition, in experiment [2] (setting [22]), the “AK-based Prestwick Library Screening Results, S. aureus (fold increase in extracellular AK activity)” value is reported as 1.1. Moreover, the “AK-based Prestwick Library Screening Results, K. pneumoniae (fold increase in extracellular AK activity)” value in experiment [3] (setting [22]) was found to be 1.0. For the same molecule, in experiment [4] (setting [22]), the “AK-based Prestwick Library Screening Results, A. baumannii (fold increase in extracellular AK activity)” value was 1.0. Also, the “AK-based Prestwick Library Screening Results, P. aeruginosa (fold increase in extracellular AK activity)” value in experiment [5] (setting [22]) came out at 1.0. The “AK-based Prestwick Library Screening Results, E. cloacae (fold increase in extracellular AK activity)” value in experiment [6] (setting [22]) was 1.7. Besides, the “AK-based Prestwick Library Screening Results, E. coli (fold increase in extracellular AK activity)” value in experiment [7] (setting [22]) is 1.3.

For the molecule `CC#C[C@]1(O)CC[C@H]2[C@@H]3CCC4=CC(=O)CCC4=C3[C@@H](c3ccc(N(C)C)cc3)C[C@@]21C` [Mifepristone], the fold induction at 50 µM in experiment [1] (setting [15]) worked out at 1.1; in experiment [2] (setting [16]) it was 0.7; in experiment [3] (setting [17]), 0.9; in experiment [4] (setting [18]), 1.1; in experiment [5] (setting [19]) it was 1; in experiment [6] (setting [20]), 1.4. Besides, the fold induction at 50 µM in experiment [7] (planktonic E. coli, 50 μM final drug concentration, 384-well, […], read-out: AK-based Prestwick Library Screening Results: E. coli (increase in extracellular AK activity)) amounted to 1.3.

On to `CC(C)COCC(CN(Cc1ccccc1)c1ccccc1)N1CCCC1` (stereo not shown) [Bepridil hydrochloride], for which the fold induction at 50 µM in experiment [1] (planktonic E. faecium, 50 μM final drug concentration, cutoff for positive-scoring molecules 3-fold increase, read-out: AK-based Prestwick Library Screening Results, E. faecium (increase in extracellular AK activity)) worked out at 1.1; in experiment [2] (planktonic S. aureus, 50 μM final drug concentration, cutoff for positive-scoring molecules 3-fold increase, read-out: AK-based Prestwick Library Screening Results, S. aureus (increase in extracellular AK activity)), 1.6; in experiment [3] (planktonic K. pneumoniae, 50 μM final drug concentration, cutoff for positive-scoring molecules 3-fold increase, read-out: AK-based Prestwick Library Screening Results, K. pneumoniae (increase in extracellular AK activity)), 1; in experiment [4] (planktonic A. baumannii, 50 μM final drug concentration, cutoff for positive-scoring molecules 3-fold increase, read-out: AK-based Prestwick Library Screening Results, A. baumannii (increase in extracellular AK activity)) it was 1.5; in experiment [5] (planktonic P. aeruginosa, 50 μM final drug concentration, cutoff for positive-scoring molecules 3-fold increase, read-out: AK-based Prestwick Library Screening Results, P. aeruginosa (increase in extracellular AK activity)) it was 1.2; in experiment [6] (planktonic E. cloacae, 50 μM final drug concentration, cutoff for positive-scoring molecules 3-fold increase, read-out: AK-based Prestwick Library Screening Results, E. cloacae (increase in extracellular AK activity)), 1.4. The fold induction at 50 µM in experiment [7] (planktonic E. coli, 50 μM final drug concentration, cutoff for positive-scoring molecules 3-fold increase, read-out: AK-based Prestwick Library Screening Results, E. coli (increase in extracellular AK activity)) is 1.3.

For `Nc1ccc(S(=O)(=O)Nc2cnc3ccccc3n2)cc1` [Sulfaquinoxaline sodium salt], the fold induction at 50 µM in experiment [1] (setting [8]) is 0.9; in experiment [2] (setting [9]) it was 0.7; in experiment [3] (setting [10]) it was 0.6; in experiment [4] (setting [11]), 1; in experiment [5] (setting [12]), 0.6; in experiment [6] (setting [13]) it was 0.8. In addition, the fold induction at 50 µM in experiment [7] (setting [14]) was found to be 0.6.
